We go through 3 substances from US6916783B2, “Methods for accelerating bone and cartilage growth and repair” (University of Southern California, priority 1998, dated 2005).

A short description of assay [1]: Effectiveness tests of AII fragments (method not described). The settings on record: test not specified.
Another assay has as its system chondrocytes. The experiment in a line: Rabbit chondrocyte proliferation in culture. The assay is classed as cell-based. The note with it: 10 μg/ml peptide; days 1, 2, and 3 after culture initiation; nuclei counted after Giemsa stain; FIGS. 1-4. As for the experimental part:
Chondrocytes were isolated from the cartilage of the knee joints of adult rabbits and cultured according to the method of Okazaki et al. (Ann. Rheum. Dis. 55:181-186, 1996). Briefly, cartilage explants were minced into small pieces (approximately 1.5 mm by 1.5 mm). The tissue pieces were digested at 37° C. sequentially in 0.05% hyaluronidase (415 U/mg protein) for 10 minutes, 0.2% Type III trypsin (10,000 U/mg protein, Sigma) and 0.53 mM EDTA for 15 minutes, and 0.2% Type I collagenase (136 U/mg protein, Sigma) for 30 minutes. The samples were then washed and incubated overnight at 37° C. in 5% CO2 in air in Dulbecco's modified Eagle's medium enriched with 10% fetal calf serum, 3.5 mg/ml glucose, 0.2% Type I collagenase and antibiotics (100 U/ml penicillin and 100 μg/ml streptomycin).
After this incubation, the cells were harvested and washed once with phosphate buffered saline (pH 7.2). The cells were then counted with a hemacytometer and resuspended at 1×10^5 cells/ml in Ham's F12 supplemented with 10% fetal calf serum and antibiotics. A 10 ml aliquot of cells was transferred to collagen coated 25 cm^2 flasks (coated with collagen isolated from rat tail tendons) and incubated at 37° C. in 5% CO2 in air. […] Cell numbers were quantitated by staining the cells with Giemsa stain and counting the number of nuclei detected via microscopy.

The target in a further assay is T1, AT2 receptor (Homo sapiens, UniProt P50052).
T1 sequence (P50052 1-363): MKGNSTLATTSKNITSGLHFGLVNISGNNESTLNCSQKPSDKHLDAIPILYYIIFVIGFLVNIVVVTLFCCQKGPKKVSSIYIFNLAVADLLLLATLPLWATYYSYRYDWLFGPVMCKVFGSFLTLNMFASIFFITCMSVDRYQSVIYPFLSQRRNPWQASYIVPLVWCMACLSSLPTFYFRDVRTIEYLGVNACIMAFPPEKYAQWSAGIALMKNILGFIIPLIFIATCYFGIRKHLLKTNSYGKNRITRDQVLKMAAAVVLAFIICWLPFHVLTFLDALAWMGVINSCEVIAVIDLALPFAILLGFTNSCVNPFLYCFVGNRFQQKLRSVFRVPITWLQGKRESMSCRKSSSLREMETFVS
The note with it: cited from earlier work.

“Also recorded” adds a separate entry of the source.

As to Tyr-Ile-His-Pro-Phe (YIHPF) [AII(4-8)], the effectiveness in tests result in assay [1] is “not to be effective; also recorded: ineffective in repeated tests”.

For the substance “Asp-Arg-Val-Tyr-Ile-His-Pro-Phe (DRVYIHPF) [AII]”, in the assay on chondrocytes, the “effect on chondrocyte proliferation” value was “accelerated the chondrocyte proliferation”. Also, in the assay with AT2 receptor, the “times higher affinity for AT2 than AT1” value is given as 100 times.

In the case of His-Pro-Phe (HPF) [AII(6-8)], in assay [1], the effectiveness in tests result is given as “not to be effective”.
